Legend:
Assay in all cases: phosphoenolpyruvate titration of purified optical probe (fluorescence ratio)
Type in all cases: binding
Settings in all cases: phosphoenolpyruvate 0 to 10 mM, purified probe treated 10 minutes, ex 420/485 nm, em 528 nm
[1] = target: T1, Thermus thermophilus phosphofructokinase TtPFK (SEQ ID NO: 1) optical probe 254/256-TtPFK-cpYFP, no mutation (Thermus thermophilus, UniProt P21777, form not given/R255N)
T1 construct: the numbering corresponds to the full length of the phosphoenolpyruvate-sensitive polypeptide; His-tag; made in house; host or cells: E. coli BL21 (DE3)
Method: (§1) • 1. The expression vectors (for example, a phosphoenolpyruvate optical probe expression vector based on pCDF.) were transformed into BL21 (DE3) cells, incubated inverted overnight, and the clones were picked from the plates into 250 mL Erlenmeyer flasks, placed in a shaker at 37 °C and incubated at 220 rpm to OD=0.4-0.8, then 1/1000 (V/V) of IPTG (1 M) was added to induce expression at 18 °C for 24-36 hours. • 2. Upon completion of inducible expression, cells were harvested by centrifugation at 4000 rpm for 30 min, resuspended in 50 mM phosphate buffer and disrupted ultrasonically until the broth were clear, centrifuged at 9600 rpm at 4 °C for 20 min. • 3. The centrifuged supernatant was used to obtain protein by purification through a self-packed nickel column affinity chromatography column, and the protein obtained after nickel column affinity chromatography was further used to obtain protein dissolved in 100 mM HEPES buffer (pH 7.4). • 4. After purified proteins were subjected to SDS-PAGE, probes were diluted to a protein solution having a final concentration of 0.2-5 µM using assay buffer (100 mm HEPES, 100 mM NaCl, pH 7.4). Phosphoenolpyruvate was formulated as a stock solution at a final concentration of 50 mM with the assay buffer (100 mM HEPES, 100 mM NaCl, pH 7.4). • 5. 100 µl 1 µM of protein solution was taken, incubated at 37 °C for 10 min, phosphoenolpyruvate was added for titration, and the fluorescence intensity of 528 nm emission after 420 nm and 485 nm fluorescence excitation of the protein was measured. The fluorescence excitation and emission determination of the samples were done using a multifunctional fluorescence microplate reader. • 6. 100 µl 1 µM of protein solution was taken, incubated at 37 °C for 10 min, and phosphoenolpyruvate was added to determine the absorption and fluorescence spectra of the proteins. Determination of the absorption and fluorescence spectra of the samples was done by spectrophotometer and spectrofluorometer.
(§2) The recombinant plasmids of the mutation library were transformed into BL21 (DE3) to induce expression, and the purified probe protein was subjected to phosphoenolpyruvate-responsive screening, dividing the detection signal of the fusion fluorescent protein containing 2 mM phosphoenolpyruvate by that of the fusion fluorescent protein without phosphoenolpyruvate. […]

[2] = target: T2, Thermus thermophilus TtPFK optical probe 254/256-TtPFK-I253Q/Q254L/G256V/G257L-cpYFP-Y1T/N246F (Thermus thermophilus, UniProt P21777, form not given/G256V/G257L/I253Q/Q254L)
T2 construct: the numbering corresponds to the full length of the phosphoenolpyruvate-sensitive polypeptide; His-tag; made in house; host or cells: E. coli BL21 (DE3)
Method: as §1, §2

[3] = target: T3, Thermus thermophilus TtPFK optical probe 254/255-TtPFK-cpYFP variant, TtPFK I253Y/Q254I (Thermus thermophilus, UniProt P21777, form not given/I253Y/Q254I/Q254N)
T3 construct: the numbering corresponds to the full length of the phosphoenolpyruvate-sensitive polypeptide; His-tag; made in house; host or cells: E. coli BL21 (DE3)
Method: as §1, §2

[4] = target: T4, Thermus thermophilus phosphofructokinase TtPFK (SEQ ID NO: 1) optical probe 254/255-TtPFK-cpYFP, no mutation, SEQ ID NO: 10 (Thermus thermophilus, UniProt P21777)
T4 construct: His-tag; made in house; host or cells: E. coli BL21 (DE3)
Method: as §1, §2

[5] = target: T5, Thermus thermophilus TtPFK optical probe 254/255-TtPFK-cpYFP variant, TtPFK Q254V/R255I/G256H, cpYFP N246W (Thermus thermophilus, UniProt P21777, form not given/G256H/Q254V/R255I)
T5 construct: the numbering corresponds to the full length of the phosphoenolpyruvate-sensitive polypeptide; His-tag; made in house; host or cells: E. coli BL21 (DE3)
Method: as §1, §2

[6] = target: T6, Thermus thermophilus TtPFK optical probe 254/255-TtPFK-I253K/Q254L/R255L/G256F-cpYFP-Y1S, SEQ ID NO: 12 (Thermus thermophilus, UniProt P21777, form not given/G256F/I253K/Q254L/R255L)
T6 construct: the numbering corresponds to the full length of the phosphoenolpyruvate-sensitive polypeptide; His-tag; made in house; host or cells: E. coli BL21 (DE3)
Method: as §1, §2

[7] = target: T7, Thermus thermophilus TtPFK optical probe 254/255-TtPFK-cpYFP variant, TtPFK I253F/Q254L/R255L/G256F, cpYFP Y1G/N246F (Thermus thermophilus, UniProt P21777, form not given/G256F/I253F/Q254L/R255L)
T7 construct: the numbering corresponds to the full length of the phosphoenolpyruvate-sensitive polypeptide; His-tag; made in house; host or cells: E. coli BL21 (DE3)
Method: as §1, §2

[8] = target: T8, Thermus thermophilus TtPFK optical probe 254/255-TtPFK-I253G/Q254L/R255L/G256F-cpYFP-Y1P (Thermus thermophilus, UniProt P21777, form not given/G256F/I253G/Q254L/R255L)
T8 construct: the numbering corresponds to the full length of the phosphoenolpyruvate-sensitive polypeptide; His-tag; made in house; host or cells: E. coli BL21 (DE3)
Method: as §1, §2

[9] = target: T9, Thermus thermophilus TtPFK optical probe 254/255-TtPFK-cpYFP variant, TtPFK I253V/Q254A/R255F/G256Y, cpYFP N246F (Thermus thermophilus, UniProt P21777, form not given/G256Y/I253V/Q254A/R255F)
T9 construct: the numbering corresponds to the full length of the phosphoenolpyruvate-sensitive polypeptide; His-tag; made in house; host or cells: E. coli BL21 (DE3)
Method: as §1, §2

[10] = target: T10, Thermus thermophilus TtPFK optical probe 254/255-TtPFK-cpYFP variant, TtPFK I253V/Q254L/R255L/G256H, cpYFP Y1S (Thermus thermophilus, UniProt P21777, form not given/G256H/I253V/Q254L/R255L)
T10 construct: the numbering corresponds to the full length of the phosphoenolpyruvate-sensitive polypeptide; His-tag; made in house; host or cells: E. coli BL21 (DE3)
Method: as §1, §2

[11] = target: T11, Thermus thermophilus TtPFK optical probe 254/256-TtPFK-cpYFP variant, TtPFK I253D/Q254L/G256V/G257L, cpYFP Y1T/N246F (Thermus thermophilus, UniProt P21777, form not given/G256V/G257L/I253D/Q254L)
T11 construct: the numbering corresponds to the full length of the phosphoenolpyruvate-sensitive polypeptide; His-tag; made in house; host or cells: E. coli BL21 (DE3)
Method: as §1, §2

[12] = target: T12, Thermus thermophilus TtPFK optical probe 254/255-TtPFK-cpYFP variant, TtPFK Q254L/R255L/G256H, cpYFP Y1S (Thermus thermophilus, UniProt P21777, form not given/G256H/Q254L/R255L)
T12 construct: the numbering corresponds to the full length of the phosphoenolpyruvate-sensitive polypeptide; His-tag; made in house; host or cells: E. coli BL21 (DE3)
Method: as §1, §2

[13] = target: T13, Thermus thermophilus TtPFK optical probe 254/255-TtPFK-cpYFP variant, TtPFK I253N/Q254L/R255L/G256F, cpYFP Y1S/N246F (Thermus thermophilus, UniProt P21777, form not given/G256F/I253N/Q254L/R255L)
T13 construct: the numbering corresponds to the full length of the phosphoenolpyruvate-sensitive polypeptide; His-tag; made in house; host or cells: E. coli BL21 (DE3)
Method: as §1, §2

Question: How did the Kd [1] turn out when `C=C(OP(=O)(O)O)C(=O)O` [phosphoenolpyruvate, Phosphoenolpyruvate] was run?
Answer: 2.15 µM

Question: And the Kd [2]?
Answer: 13.1 µM

Question: What about the Kd [3] of the same compound?
Answer: 1.55 µM

Question: And the Kd [4]?
Answer: 0.8 µM

Question: What about the Kd [5] of the same compound?
Answer: 11.4 µM

Question: And the Kd [6]?
Answer: 17.5 µM

Question: And the Kd [7]?
Answer: 5.56 µM

Question: And the Kd [8]?
Answer: 30.9 µM

Question: And the Kd [9]?
Answer: 32 µM

Question: What about the Kd [10] of the same compound?
Answer: 5.64 µM

Question: What about the Kd [11] of the same compound?
Answer: 13.4 µM

Question: And the Kd [12]?
Answer: 8.5 µM

Question: What about the Kd [13] of the same compound?
Answer: 9.66 µM
